Activity calls are given as the source filed them. No cut-off for these calls is given here.
Key:
Mus musculus [1] = test: In vivo agonist activity against PPARalpha/delta assessed as upregulation of Angptl4 mRNA expression in C57BL/6Nifdc mouse skeletal muscle at 10 mg/kg, po for 4 days; format: functional, organism-based; conditions: time 4.0 day
Mus musculus [2] = test: In vivo agonist activity at PPARalpha/delta assessed as upregulation of Pex11a mRNA expression in C57BL/6Nifdc mouse liver at 10 mg/kg, po for 4 days; format: functional, organism-based; conditions: time 4.0 day
Mus musculus [3] = test: In vivo agonist activity against PPARalpha/delta assessed as upregulation of Abca1 mRNA expression in C57BL/6Nifdc mouse skeletal muscle at 10 mg/kg, po for 4 days; format: functional, organism-based; conditions: time 4.0 day
Mus musculus [4] = test: In vivo agonist activity at PPARalpha/delta assessed as upregulation of Acox1 mRNA expression in C57BL/6Nifdc mouse liver at 10 mg/kg, po for 4 days; format: functional, organism-based; conditions: time 4.0 day
Mus musculus [5] = test: Anti-inflammatory activity in HF-CDAA-induced nonalcoholic steatohepatitis C57BL/6JNifdc mouse model assessed as decrease in Il1b mRNA expression at 10 mg/kg, po; format: functional, organism-based
HepG2 = test: Agonist activity against PPARalpha/delta (unknown origin) assessed as upregulation of ACADVL mRNA expression in human HepG2 cells incubated for 12 hrs by RT-PCR analysis; format: cell-based; conditions: filed as agonist, dose 8-200 nM
Mus musculus [6] = test: Anti-NASH activity in HF-CDAA-induced nonalcoholic steatohepatitis C57BL/6JNifdc mouse model assessed as decrease in level of serum ALT 10 mg/kg, po by automatic biochemical analysis; format: functional, organism-based
[7] = target: T1, Peroxisome proliferator-activated receptor alpha (Homo sapiens) (UniProt Q07869); conditions: filed as agonist, dose 10.0 nM
T1 sequence (whole entry): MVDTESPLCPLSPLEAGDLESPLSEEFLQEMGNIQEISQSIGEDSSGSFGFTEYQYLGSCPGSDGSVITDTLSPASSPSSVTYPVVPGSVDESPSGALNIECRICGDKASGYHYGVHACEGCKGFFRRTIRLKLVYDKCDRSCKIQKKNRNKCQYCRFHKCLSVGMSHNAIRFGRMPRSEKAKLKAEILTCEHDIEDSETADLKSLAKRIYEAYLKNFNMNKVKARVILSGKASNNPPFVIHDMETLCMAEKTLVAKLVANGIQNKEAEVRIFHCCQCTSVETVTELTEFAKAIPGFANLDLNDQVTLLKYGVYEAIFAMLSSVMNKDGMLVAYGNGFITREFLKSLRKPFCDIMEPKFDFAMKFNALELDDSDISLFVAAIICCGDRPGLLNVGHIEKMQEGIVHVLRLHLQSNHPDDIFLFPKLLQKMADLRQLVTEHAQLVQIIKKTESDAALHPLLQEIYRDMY
Description: Agonist activity at PPARalpha (unknown origin) assessed as maximal activation at 10 nM relative to GW7647

Mus musculus [8] = test: Anti-NASH activity in HF-CDAA-induced nonalcoholic steatohepatitis C57BL/6JNifdc mouse model assessed as lipid number at 3 to 30 mg/kg, po by H and E staining method; format: functional, organism-based; conditions: dose 3-30 mg/kg
Mus musculus [9] = test: In vivo agonist activity at PPARalpha/delta assessed as upregulation of Hmgcs2 mRNA expression in C57BL/6Nifdc mouse liver at 10 mg/kg, po for 4 days; format: functional, organism-based; conditions: time 4.0 day
Mus musculus [10] = test: In vivo agonist activity at PPARalpha/delta assessed as upregulation of Lpin2 mRNA expression in C57BL/6Nifdc mouse liver at 10 mg/kg, po for 4 days; format: functional, organism-based; conditions: time 4.0 day
Mus musculus [11] = test: In vivo agonist activity against PPARalpha/delta assessed as upregulation of Acs15 mRNA expression in C57BL/6Nifdc mouse liver at 10 mg/kg, po for 4 days; format: functional, organism-based; conditions: time 4.0 day
AML12 [12] = test: Agonist activity against PPARalpha/delta (unknown origin) assessed as upregulation of Cpt1A mRNA expression in […] cells incubated for 12 hrs by RT-PCR analysis; format: cell-based; conditions: filed as agonist, dose 8-200 nM
COS7 = test: Agonist activity at human FXR (193 to 486 residues) in Cos7 cells transfected with LBD-Gal4 and pGL435 Gal4 UAS Luc reporter plasmid at 10 uM by reporter gene assay; format: cell-based
AML12 [13] = test: Agonist activity against PPARalpha/delta (unknown origin) assessed as upregulation of ACADVL mRNA expression in […] cells incubated for 12 hrs by RT-PCR analysis; format: cell-based; conditions: filed as agonist, dose 8-200 nM
Mus musculus [14] = test: Anti-fibrosis effect in HF-CDAA-induced nonalcoholic steatohepatitis C57BL/6JNifdc mouse model assessed as expression of Tgfb1 marker at 10 mg/kg, po after 20 hrs by Western blot analysis; format: functional, organism-based
AML12 [15] = test: Agonist activity against PPARalpha/delta (unknown origin) assessed as upregulation of Pdk4 mRNA expression in […] cells incubated for 12 hrs by RT-PCR analysis; format: cell-based; conditions: filed as agonist, dose 8-200 nM
Mus musculus [16] = test: In vivo agonist activity against PPARalpha/delta assessed as upregulation of Cd36 mRNA expression in C57BL/6Nifdc mouse liver at 10 mg/kg, po for 4 days; format: functional, organism-based; conditions: time 4.0 day
Mus musculus [17] = test: In vivo agonist activity against PPARalpha/delta assessed as upregulation of Fabp1 mRNA expression in C57BL/6Nifdc mouse liver at 10 mg/kg, po for 4 days; format: functional, organism-based; conditions: time 4.0 day
C2C12 = test: Agonist activity against PPARalpha/delta (unknown origin) assessed as upregulation of Cpt1A mRNA expression in […] cells at 8 nM incubated for 12 hrs by RT-PCR analysis; format: cell-based; conditions: filed as agonist
Mus musculus [18] = test: In vivo agonist activity against PPARalpha/delta assessed as upregulation of Ucp3 mRNA expression in C57BL/6Nifdc mouse liver at 10 mg/kg, po for 4 days; format: functional, organism-based; conditions: time 4.0 day
Mus musculus [19] = test: In vivo agonist activity against PPARalpha/delta assessed as upregulation of Slc25a20 mRNA expression in C57BL/6Nifdc mouse skeletal muscle at 10 mg/kg, po for 4 days; format: functional, organism-based; conditions: time 4.0 day
[20] = target: Voltage-gated inwardly rectifying potassium channel KCNH2 (Homo sapiens, UniProt Q12809); test: Inhibition of hERG potassium channel in HEK293 cells upto 30 uM by whole-cell patch clamp assay; format: toxicity, cell-based
Sequence of Voltage-gated inwardly rectifying potassium channel KCNH2 (Q12809 whole entry): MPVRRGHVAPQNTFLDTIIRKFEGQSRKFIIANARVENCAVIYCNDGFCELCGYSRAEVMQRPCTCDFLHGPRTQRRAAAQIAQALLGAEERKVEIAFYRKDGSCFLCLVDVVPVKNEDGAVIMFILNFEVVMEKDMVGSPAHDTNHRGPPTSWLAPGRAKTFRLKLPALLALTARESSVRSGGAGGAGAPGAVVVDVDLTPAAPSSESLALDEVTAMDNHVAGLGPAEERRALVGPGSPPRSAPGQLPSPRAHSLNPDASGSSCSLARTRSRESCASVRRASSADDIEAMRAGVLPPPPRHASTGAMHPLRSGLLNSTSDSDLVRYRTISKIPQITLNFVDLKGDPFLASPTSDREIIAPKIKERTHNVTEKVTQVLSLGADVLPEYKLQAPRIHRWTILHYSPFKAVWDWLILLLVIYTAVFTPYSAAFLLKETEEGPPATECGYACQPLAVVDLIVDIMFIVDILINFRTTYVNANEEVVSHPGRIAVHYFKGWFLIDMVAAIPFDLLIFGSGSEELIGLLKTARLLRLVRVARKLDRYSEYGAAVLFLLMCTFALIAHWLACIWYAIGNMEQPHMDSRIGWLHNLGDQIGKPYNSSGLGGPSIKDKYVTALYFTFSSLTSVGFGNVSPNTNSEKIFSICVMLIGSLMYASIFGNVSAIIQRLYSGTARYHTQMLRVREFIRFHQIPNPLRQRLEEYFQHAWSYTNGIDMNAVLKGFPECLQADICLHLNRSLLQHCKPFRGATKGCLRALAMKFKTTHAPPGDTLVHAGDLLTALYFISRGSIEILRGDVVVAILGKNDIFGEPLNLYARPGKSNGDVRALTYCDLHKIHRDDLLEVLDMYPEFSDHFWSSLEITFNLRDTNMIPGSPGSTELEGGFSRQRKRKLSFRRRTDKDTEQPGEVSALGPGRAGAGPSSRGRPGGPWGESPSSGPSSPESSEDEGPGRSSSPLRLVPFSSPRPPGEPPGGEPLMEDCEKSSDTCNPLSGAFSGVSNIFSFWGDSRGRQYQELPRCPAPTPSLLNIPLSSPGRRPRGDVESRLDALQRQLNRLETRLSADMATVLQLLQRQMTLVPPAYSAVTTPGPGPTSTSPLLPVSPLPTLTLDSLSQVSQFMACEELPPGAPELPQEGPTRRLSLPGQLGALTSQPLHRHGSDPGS

Mus musculus [21] = test: In vivo agonist activity against PPARalpha/delta assessed as upregulation of Abcg2 mRNA expression in C57BL/6Nifdc mouse liver at 10 mg/kg, po for 4 days; format: functional, organism-based; conditions: time 4.0 day
Mus musculus [22] = test: In vivo agonist activity against PPARalpha/delta assessed as upregulation of Pex11a mRNA expression in C57BL/6Nifdc mouse skeletal muscle at 10 mg/kg, po for 4 days; format: functional, organism-based; conditions: time 4.0 day
Mus musculus [23] = test: In vivo agonist activity against PPARalpha/delta assessed as upregulation of Mat2a mRNA expression in C57BL/6Nifdc mouse liver at 10 mg/kg, po for 4 days; format: functional, organism-based; conditions: time 4.0 day
Mus musculus [24] = test: In vivo agonist activity against PPARalpha/delta assessed as upregulation of […] mRNA expression in C57BL/6Nifdc mouse skeletal muscle at 10 mg/kg, po for 4 days; format: functional, organism-based; conditions: time 4.0 day
Mus musculus [25] = test: In vivo agonist activity against PPARalpha/delta assessed as upregulation of -Mlycd mRNA expression in C57BL/6Nifdc mouse skeletal muscle at 10 mg/kg, po for 4 days; format: functional, organism-based; conditions: time 4.0 day
[26] = Microsomal stability in human liver microsomes assessed as terminal elimination half life at 1 uM measured upto 60 mins by LC-MS/MS-11 analysis; format: ADME, Microsome

In the case of `Cc1cc(Cn2ncn(-c3ccc(OC(F)(F)F)cc3)c2=O)cc(C)c1OC(C)(C)C(=O)O`, the Activity (Mus musculus [1]) was “Active”, the Activity (Mus musculus [2]) was “Active” and the Activity (Mus musculus [3]) was “Active”. For the same compound, the Activity (Mus musculus [4]) was “Active”, the Activity (Mus musculus [5]) was “Active” and the Activity (HepG2) was “Dose-Dependent Effect”. The Activity (Mus musculus [6]) was “Active”, the Emax [7] was 110% and the Activity (Mus musculus [8]) was “Active”. The Activity (Mus musculus [9]) was “Active”, the Activity (Mus musculus [10]) was “Active” and the Activity (Mus musculus [11]) was “Active”. The Activity (AML12 [12]) was “Dose-Dependent Effect”, the Activity (COS7) was “inactive” and the Activity (AML12 [13]) was “Dose-Dependent Effect”. For the same compound, the Activity (Mus musculus [14]) was “Active”, the Activity (AML12 [15]) was “Dose-Dependent Effect” and the Activity (Mus musculus [16]) was “Active”. The Activity (Mus musculus [17]) was “Active”, the Activity (C2C12) was “Active” and the Activity (Mus musculus [18]) was “Active”. The Activity (Mus musculus [19]) was “Active”, the “inhibition (INH)” value [20] was “Active” and the Activity (Mus musculus [21]) was “Active”. The Activity (Mus musculus [22]) was “Active”, the Activity (Mus musculus [23]) was “Active” and the Activity (Mus musculus [24]) was “Active”. For the same compound, the Activity (Mus musculus [25]) was “Active” and the half-life at 1 µM [26] was > 2 h.
